Type in all cases: cell-based
The target of experiment [1] is T1, SMARCA2 (Homo sapiens, UniProt P51531). The experiment can be described thus: SMARCA2 Western blot degradation in MV4-11 cells. The arrangement: SMARCA2/SMARCA4 protein degradation selectivity in MV4-11 cells; endogenous in cells; host or cells: MV4-11. The conditions noted are these: for Dmax: MV4-11, MV4-11 cells, read-out: SMARCA2 MSD MV411 degradation 24 h: average Dmax %; for DC50: read-out: SMARCA2 MSD MV411 degradation 24 h: Mean external-Abs DC50; for Selectivity in MV411: SMARCA2/4 selectivity. (In general: Immunoblotting shows a protein as a band on a membrane.)
T1 sequence (P51531 whole entry): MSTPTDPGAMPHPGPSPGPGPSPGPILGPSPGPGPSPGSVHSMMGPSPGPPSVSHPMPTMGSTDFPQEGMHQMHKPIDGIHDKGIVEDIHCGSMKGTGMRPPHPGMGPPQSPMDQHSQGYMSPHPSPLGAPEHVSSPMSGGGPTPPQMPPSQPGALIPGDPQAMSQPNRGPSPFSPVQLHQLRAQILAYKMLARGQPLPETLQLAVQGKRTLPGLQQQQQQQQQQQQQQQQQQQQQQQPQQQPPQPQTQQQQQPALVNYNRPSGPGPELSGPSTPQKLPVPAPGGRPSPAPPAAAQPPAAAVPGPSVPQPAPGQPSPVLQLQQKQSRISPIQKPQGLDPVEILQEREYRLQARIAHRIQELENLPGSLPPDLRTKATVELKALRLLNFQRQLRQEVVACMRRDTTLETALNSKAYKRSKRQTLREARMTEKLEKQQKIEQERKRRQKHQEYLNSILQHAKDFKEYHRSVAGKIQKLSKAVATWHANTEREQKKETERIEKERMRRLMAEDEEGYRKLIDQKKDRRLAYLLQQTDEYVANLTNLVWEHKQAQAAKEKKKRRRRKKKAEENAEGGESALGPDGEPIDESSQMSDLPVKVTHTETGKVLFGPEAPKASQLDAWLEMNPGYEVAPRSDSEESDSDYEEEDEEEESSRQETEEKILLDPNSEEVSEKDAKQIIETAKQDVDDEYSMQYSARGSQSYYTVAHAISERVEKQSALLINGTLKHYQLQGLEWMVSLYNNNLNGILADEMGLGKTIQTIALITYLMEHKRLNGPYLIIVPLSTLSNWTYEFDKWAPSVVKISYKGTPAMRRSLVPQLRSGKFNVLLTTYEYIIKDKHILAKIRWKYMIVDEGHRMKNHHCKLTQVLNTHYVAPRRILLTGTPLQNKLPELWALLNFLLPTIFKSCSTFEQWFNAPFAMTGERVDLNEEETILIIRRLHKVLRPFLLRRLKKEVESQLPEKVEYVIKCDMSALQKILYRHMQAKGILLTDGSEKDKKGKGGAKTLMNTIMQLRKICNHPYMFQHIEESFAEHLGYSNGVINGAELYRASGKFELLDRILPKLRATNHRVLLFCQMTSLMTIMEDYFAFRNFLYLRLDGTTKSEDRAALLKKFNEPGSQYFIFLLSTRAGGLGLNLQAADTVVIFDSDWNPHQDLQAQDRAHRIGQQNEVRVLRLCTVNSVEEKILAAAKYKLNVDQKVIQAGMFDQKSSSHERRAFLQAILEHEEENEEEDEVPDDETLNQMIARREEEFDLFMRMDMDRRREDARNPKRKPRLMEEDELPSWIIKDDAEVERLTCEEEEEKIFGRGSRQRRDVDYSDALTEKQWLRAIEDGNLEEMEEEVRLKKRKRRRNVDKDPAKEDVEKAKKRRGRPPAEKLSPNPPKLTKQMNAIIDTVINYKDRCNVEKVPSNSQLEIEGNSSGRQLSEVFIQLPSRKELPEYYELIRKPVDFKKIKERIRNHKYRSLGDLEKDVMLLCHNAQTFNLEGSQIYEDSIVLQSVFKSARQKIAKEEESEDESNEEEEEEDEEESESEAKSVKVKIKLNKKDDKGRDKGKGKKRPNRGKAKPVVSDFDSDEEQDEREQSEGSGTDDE

A further experiment deals with T2, SMARCA4 (Homo sapiens, UniProt P51532).
T2 construct: SMARCA2/SMARCA4 protein degradation selectivity in MV4-11 cells; endogenous in cells; host or cells: MV4-11
T2 sequence (P51532 whole entry): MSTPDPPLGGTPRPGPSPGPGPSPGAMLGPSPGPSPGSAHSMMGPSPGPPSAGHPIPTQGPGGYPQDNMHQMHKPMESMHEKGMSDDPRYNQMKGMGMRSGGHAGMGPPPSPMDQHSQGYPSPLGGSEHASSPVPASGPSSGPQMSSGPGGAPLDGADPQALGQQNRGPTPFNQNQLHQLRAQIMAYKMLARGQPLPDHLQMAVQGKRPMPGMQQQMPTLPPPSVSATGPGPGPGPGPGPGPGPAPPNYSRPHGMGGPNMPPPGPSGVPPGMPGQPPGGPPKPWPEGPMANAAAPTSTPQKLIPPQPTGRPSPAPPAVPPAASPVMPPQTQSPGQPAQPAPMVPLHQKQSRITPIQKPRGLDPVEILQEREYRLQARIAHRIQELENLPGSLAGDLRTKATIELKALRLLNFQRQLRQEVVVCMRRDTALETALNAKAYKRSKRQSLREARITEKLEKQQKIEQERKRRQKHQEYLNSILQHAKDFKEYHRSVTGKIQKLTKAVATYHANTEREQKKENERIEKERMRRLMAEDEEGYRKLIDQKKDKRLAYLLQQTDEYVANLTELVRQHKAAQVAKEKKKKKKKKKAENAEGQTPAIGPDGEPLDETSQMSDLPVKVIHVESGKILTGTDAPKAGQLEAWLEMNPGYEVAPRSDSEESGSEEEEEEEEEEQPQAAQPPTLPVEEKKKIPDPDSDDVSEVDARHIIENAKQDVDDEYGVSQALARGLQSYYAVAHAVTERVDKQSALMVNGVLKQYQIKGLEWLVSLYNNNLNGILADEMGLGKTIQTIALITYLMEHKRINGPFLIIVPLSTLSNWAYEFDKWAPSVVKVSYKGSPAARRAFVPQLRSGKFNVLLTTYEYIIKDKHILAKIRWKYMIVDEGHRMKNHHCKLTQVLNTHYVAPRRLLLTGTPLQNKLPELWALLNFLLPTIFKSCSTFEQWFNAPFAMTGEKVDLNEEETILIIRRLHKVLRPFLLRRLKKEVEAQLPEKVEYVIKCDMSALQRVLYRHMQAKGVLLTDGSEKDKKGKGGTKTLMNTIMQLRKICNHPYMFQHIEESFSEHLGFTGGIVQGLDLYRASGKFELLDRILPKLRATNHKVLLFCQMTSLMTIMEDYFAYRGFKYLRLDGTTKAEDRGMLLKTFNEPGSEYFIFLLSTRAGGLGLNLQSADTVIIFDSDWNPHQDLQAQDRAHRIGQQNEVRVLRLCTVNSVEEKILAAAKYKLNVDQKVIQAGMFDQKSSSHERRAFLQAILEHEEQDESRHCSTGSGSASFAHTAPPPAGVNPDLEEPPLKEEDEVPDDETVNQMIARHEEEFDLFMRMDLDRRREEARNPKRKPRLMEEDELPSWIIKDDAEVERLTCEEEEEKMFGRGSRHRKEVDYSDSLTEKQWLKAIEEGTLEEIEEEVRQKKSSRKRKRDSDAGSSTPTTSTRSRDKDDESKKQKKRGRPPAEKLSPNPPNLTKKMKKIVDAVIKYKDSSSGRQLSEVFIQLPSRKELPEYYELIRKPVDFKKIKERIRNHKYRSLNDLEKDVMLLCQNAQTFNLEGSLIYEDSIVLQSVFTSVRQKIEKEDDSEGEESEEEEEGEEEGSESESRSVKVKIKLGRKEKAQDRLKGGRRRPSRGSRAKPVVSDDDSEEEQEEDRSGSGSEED
The experiment can be described thus: SMARCA4 Western blot degradation in MV4-11 cells. Particulars: for Dmax: MV4-11, MV4-11 cells, read-out: SMARCA4 MSD MV411 degradation 24 h: average Dmax %; for Dmax / DC50: 24 h; for DC50: read-out: SMARCA4 MSD MV411 degradation 24 h: Mean external-Abs DC50. The procedure, abridged:
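24 h compound exposure, MV4-11; RIPA lysates → SDS-PAGE → NC membrane; anti-SMARCA2/BRM, anti-BRG1, β-actin loading control; LI-COR fluorescence read. DC50 and Dmax at 24 h reported as letter bins.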

In experiment [2] the target is T1, SMARCA2. As to the kind of experiment: MSD SMARCA2 degradation in A549 cell line. Particulars: for Dmax: A549, A549 cells; for Dmax / DC50: 24 h; for DC50: read-out: SMARCA2 MSD A549 degradation 24 h: Average external-Abs DC50. In outline: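 A549 cells treated 24 h with compound, 3-fold series from 1000 nM. Lysates captured on MSD plates and SMARCA2 quantified with anti-SMARCA2 and SULFO-TAG secondary antibodies (electrochemiluminescence). DC50 and Dmax (% degradation at 24 h) reported as letter bins.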

One may read the Dmax as the largest share of the target that was removed. By DC50 is commonly meant the concentration at which degradation of the target reaches its halfway point.

In the case of `C#Cc1ccc(CNC(=O)[C@@H]2C[C@@H](O)CN2C(=O)[C@@H](NC(=O)C2CCN(CC3CCC(N4CCC(N5CCc6[nH]c7nnc(-c8ccccc8O)cc7c6[C@H]5C)CC4)CC3)CC2)C(C)(C)C)cc1` (stereo partly shown) [I-197], the Dmax at SMARCA2 [1] (24 h) is less than 50%; on SMARCA4, less than 50%; on SMARCA2 [2], 70 to 90%. In addition, the DC50 is greater than 100 nM at SMARCA2 [1] (MV4-11 cells, 24 h); greater than 100 nM on SMARCA4 (MV4-11 cells); greater than 100 nM on SMARCA2 [2] (A549 cells). Further, the “Selectivity in MV411” value at SMARCA2 [1] (MV4-11 cells) is “C (C (10-100 fold))”.
Regarding `C#Cc1ccc([C@H](C)NC(=O)[C@@H]2C[C@@H](O)CN2C(=O)[C@@H](NC(=O)[C@H]2CC3(C2)C[C@H](c2cnc(N4CCC(N5CCN6c7cc(-c8ccccc8O)nnc7NC[C@H]6C5)CC4)nc2)C3)C(C)(C)C)cc1` (stereo partly shown) [I-363], the 50% degradation concentration (DC50) at SMARCA2 [1] (MV4-11 cells, 24 h) was 1 to 10 nM; on SMARCA4 (MV4-11 cells), greater than 100 nM; on SMARCA2 [2] (A549 cells), 10 to 50 nM. Also, at SMARCA2 [1] (MV4-11 cells), the “Selectivity in MV411” value is reported as “C (C (10-100 fold))”.
With `C#Cc1ccc(CNC(=O)[C@@H]2C[C@@H](O)CN2C(=O)[C@@H](NC(=O)C2CCN(C[C@H]3CC[C@@H](N4CCc5[nH]c6nnc(-c7ccccc7O)cc6c5[C@H]4C)CC3)CC2)C(C)(C)C)cc1` (single isomer, unassigned) [I-201], the Dmax is 70 to 90% on SMARCA2 [1] (24 h), 50 to 70% on SMARCA4 and greater than 90% at SMARCA2 [2]. The DC50 at SMARCA2 [1] (MV4-11 cells, 24 h) is 1 to 10 nM; at SMARCA4 (MV4-11 cells), greater than 100 nM; at SMARCA2 [2] (A549 cells) it was greater than 100 nM. Further, at SMARCA2 [1] (MV4-11 cells), the “Selectivity in MV411” value is reported as “C (C (10-100 fold))”.
Regarding `C#Cc1ccc(CNC(=O)[C@@H]2C[C@@H](O)CN2C(=O)[C@@H](NC(=O)[C@H]2CCC3(CC2)C[C@H](N2CCC(c4cnc(N5CCN6c7cc(-c8ccccc8O)nnc7NC[C@H]6C5)nc4)CC2)C3)C(C)(C)C)c(OCCCOC)c1` (single isomer, unassigned) [I-149], at SMARCA2 [1] (MV4-11 cells, 24 h), the “SMARCA2 MSD MV411 degradation 24 h: average Dmax %” value was “A (A (>90% degradation))” and the half-maximal degradation concentration (DC50) was 1 to 10 nM. Besides, on SMARCA2 [1] (MV4-11 cells), the “Selectivity in MV411” value was “D (D (<10 fold))”. Further, at SMARCA4 (MV4-11 cells), the “SMARCA4 MSD MV411 degradation 24 h: average Dmax %” value is “A (A (>90% degradation))” and the DC50 lay within 10 to 100 nM. In addition, on SMARCA2 [2] (A549 cells), the “SMARCA2 MSD A549 degradation 24 h: Average Dmax %” value was “A (A (>90% degradation))” and the 50% degradation concentration (DC50) lay in the range of 10 to 50 nM.
On to `C#Cc1ccc(CNC(=O)[C@@H]2C[C@@H](O)CN2C(=O)[C@@H](NC(=O)[C@H]2CCC3(CC2)C[C@H](N2CCC(N4CC5(CC(N6CCN7c8cc(-c9ccccc9O)nnc8NC[C@H]7C6)C5)C4)CC2)C3)C(C)(C)C)c(Cl)c1` (single isomer, unassigned) [I-220], for which the greatest degradation seen (Dmax) on SMARCA2 [1] (24 h) is 70 to 90%; at SMARCA4 it was less than 50%; at SMARCA2 [2] it was greater than 90%. The 50% degradation concentration (DC50) on SMARCA2 [1] (MV4-11 cells, 24 h) is 10 to 100 nM; on SMARCA4 (MV4-11 cells) it was greater than 100 nM; at SMARCA2 [2] (A549 cells), greater than 100 nM. Also, on SMARCA2 [1] (MV4-11 cells), the “Selectivity in MV411” value was “B (B (>100-500 fold))”.
Take `C#Cc1ccc(CNC(=O)[C@@H]2C[C@@H](O)CN2C(=O)[C@@H](NC(=O)N2CCN(C3CC4(CCN(c5cnc(N6CCN7c8cc(-c9ccccc9O)nnc8NC[C@H]7C6)nc5)CC4)C3)CC2)C(C)(C)C)cc1` [I-284]: the Dmax at SMARCA2 [1] (24 h) was greater than 90%; at SMARCA4 it was 50 to 70%; on SMARCA2 [2] it was greater than 90%. The half-maximal degradation concentration (DC50) on SMARCA2 [1] (MV4-11 cells, 24 h) was 1 to 10 nM; at SMARCA4 (MV4-11 cells), greater than 100 nM; on SMARCA2 [2] (A549 cells) it was 10 to 50 nM. Also, at SMARCA2 [1] (MV4-11 cells), the “Selectivity in MV411” value is reported as “C (C (10-100 fold))”.
Consider `C#Cc1ccc(CNC(=O)[C@@H]2C[C@@H](O)CN2C(=O)[C@@H](NC(=O)N2CC3(CC(N4CCN([C@H]5CC[C@H](N6CCc7[nH]c8nnc(-c9ccccc9O)cc8c7[C@H]6C)CC5)CC4)C3)C2)C(C)(C)C)cc1` [I-186], for which the values for the maximal degradation (Dmax) at SMARCA2 [1] (24 h), on SMARCA4 and at SMARCA2 [2] were 70 to 90%, greater than 90% and greater than 90%, respectively. Also, the DC50 lay within 10 to 100 nM at SMARCA2 [1] (MV4-11 cells, 24 h); 10 to 100 nM on SMARCA4 (MV4-11 cells); 50 to 100 nM on SMARCA2 [2] (A549 cells). On SMARCA2 [1] (MV4-11 cells), the “Selectivity in MV411” value is reported as “D (D (<10 fold))”.

The values above are taken from US20250170248A1, “SMARCA DEGRADERS AND USES THEREOF” (Kymera Therapeutics, Inc., priority 2021, published 2025).
